Experimental data published in patent US20170274001A1, “Compositions and Methods for Increasing Red Blood Cells” (Yale University, priority 2014, published 2017).
Entries after “also recorded” stand apart in the source; their conditions may differ.

Columns and labels:
[1] = system: human RBCs; assay: Clearance of infused human RBCs from peripheral blood of RGSKI mice after blocking macrophage receptors (FIG. 3); format: in vivo; details: RGSKI mice treated one hour before human RBC infusion, D-4F 10 mg/mouse, control PBS, peripheral blood by FACS
Protocol: D-4F blocks several scavenger receptors. RGSKI mice were treated with different antibodies or inhibitors to block various macrophage receptors. One hour after treatment, mice were infused with human RBCs and peripheral blood was collected at indicated time points. Anti-Dectin: 50 ug/mouse; Anti-CD169: 50 ug/mouse; Anti-CD169 clone 3D6: 100 ug/mice; Anti-Mannose receptor: 50 ug/mouse; D-4F: 10 mg/mouse; Asialofetuin: 10 mg/mouse; Control: PBS.
First, an experiment was conducted to examine the clearance of human red blood cells in mouse peripheral blood. Human and mouse red blood cells were pre-labeled with CFSE or violet dye, respectively, and then were transfused into RGSKI mice by retro-orbital injection. Peripheral blood was collected 5 minutes after blood infusion and the frequency of infused mouse or human RBCs was determined by FACS. It was observed that the frequency of infused human RBCs decreased more rapidly than mouse RBCs (FIG. 1B).
Experiments were then performed to evaluate the role of the scavenger receptor in RBC clearance. D-4F is an apolipoprotein A-I mimetic peptide and a general scavenger receptor inhibitor. D-4F is an 18 D-amino acid peptide (Ac-D-W-L-K-A-F-Y-D-K-V-A-E-K-L-K-E-A-F—NH2; SEQ ID NO: 2). […] Other pathways which might involve in the destruction of human RBCs in the periphery were also tested.

[2] = Navab et al., 2006; cited from earlier work
[3] = biological target: T1, scavenger receptor B1 (Mus musculus, UniProt Q61009); assay: Clearance of infused human RBCs from peripheral blood of RGSKI mice after blocking scavenger receptor B1 (FIG. 4); format: in vivo; details: BLT-1 80 mg/kg body weight one hour before human RBC infusion, control DMSO
T1 construct: endogenous in cells; host or cells: RGSKI mice (whole animal, in vivo)
T1 sequence (Q61009 1-509): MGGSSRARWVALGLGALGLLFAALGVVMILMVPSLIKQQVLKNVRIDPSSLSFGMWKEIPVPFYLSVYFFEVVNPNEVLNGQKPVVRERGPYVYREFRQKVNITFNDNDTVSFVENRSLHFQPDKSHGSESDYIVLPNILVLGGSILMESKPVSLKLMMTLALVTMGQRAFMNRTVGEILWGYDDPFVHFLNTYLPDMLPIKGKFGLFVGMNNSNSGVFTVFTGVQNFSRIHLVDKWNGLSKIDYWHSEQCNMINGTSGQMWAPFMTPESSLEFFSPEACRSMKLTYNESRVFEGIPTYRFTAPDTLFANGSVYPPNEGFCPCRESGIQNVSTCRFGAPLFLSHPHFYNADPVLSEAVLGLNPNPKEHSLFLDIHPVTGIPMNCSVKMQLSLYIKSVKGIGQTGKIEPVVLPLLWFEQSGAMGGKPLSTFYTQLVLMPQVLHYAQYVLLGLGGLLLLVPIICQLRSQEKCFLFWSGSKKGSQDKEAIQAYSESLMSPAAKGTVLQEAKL
Protocol: RGSKI mice were treated with scavenger receptor B1 named BLT-1 (80 mg/kg body weight). One hour after treatment, mice were infused with human RBCs and peripheral blood was collected at indicated time points. Control: DMSO.

Compound	protection of infused human RBCs in the periphery [1]	protection of infused human RBCs in the periphery ([1]; listed as D4-F)	cholesterol efflux, inflammation and atherosclerosis [2]	percent of remaining RBCs in the periphery after human RBC infusion [3]
Ac-D-W-L-K-A-F-Y-D-K-V-A-E-K-L-K-E-A-F—NH2 (DWLKAFYDKVAEKLKEAF; HELM PEPTIDE1{[ac].[dD].[dW].[dL].[dK].[dA].[dF].[dY].[dD].[dK].[dV].[dA].[dE].[dK].[dL].[dK].[dE].[dA].[dF].[am]}$$$$V2.0; SMILES CC(=O)N[C@H](CC(=O)O)C(=O)N[C@H](Cc1c[nH]c2ccccc12)C(=O)N[C@H](CC(C)C)C(=O)N[C@H](CCCCN)C(=O)N[C@H](C)C(=O)N[C@H](Cc1ccccc1)C(=O)N[C@H](Cc1ccc(O)cc1)C(=O)N[C@H](CC(=O)O)C(=O)N[C@H](CCCCN)C(=O)N[C@@H](C(=O)N[C@H](C)C(=O)N[C@H](CCC(=O)O)C(=O)N[C@H](CCCCN)C(=O)N[C@H](CC(C)C)C(=O)N[C@H](CCCCN)C(=O)N[C@H](CCC(=O)O)C(=O)N[C@H](C)C(=O)N[C@H](Cc1ccccc1)C(N)=O)C(C)C) [D-4F]	blocks in vivo destruction of human RBCs	protected infused human RBCs in the periphery	increase cholesterol efflux and reduce inflammation and atherosclerosis	
CCCCCCC1CCCC1=NNC(N)=S (stereo not shown) [BLT-1, 2-Hexyl-1-cyclopentanone thiosemicarbazone]				can protect infused human RBCs in the mouse system; also recorded: increases the percent of remaining RBCs in the periphery
